Results taken from patent US4730005A, “Leukotriene antagonist” (SmithKline Beckman Corporation, priority 1986, dated 1988).

Molecular target: T1, leukotriene D4 (LTD4) induced contraction of guinea pig tracheal tissues (Cavia porcellus, UniProt Q2NNR5)
T1 construct: Guinea pig (adult male albino Hartley strain) tracheal spiral strips; from tissue; host or cells: guinea pig trachea (spiral strips, adult male albino Hartley strain)
T1 sequence (Q2NNR5 1-340): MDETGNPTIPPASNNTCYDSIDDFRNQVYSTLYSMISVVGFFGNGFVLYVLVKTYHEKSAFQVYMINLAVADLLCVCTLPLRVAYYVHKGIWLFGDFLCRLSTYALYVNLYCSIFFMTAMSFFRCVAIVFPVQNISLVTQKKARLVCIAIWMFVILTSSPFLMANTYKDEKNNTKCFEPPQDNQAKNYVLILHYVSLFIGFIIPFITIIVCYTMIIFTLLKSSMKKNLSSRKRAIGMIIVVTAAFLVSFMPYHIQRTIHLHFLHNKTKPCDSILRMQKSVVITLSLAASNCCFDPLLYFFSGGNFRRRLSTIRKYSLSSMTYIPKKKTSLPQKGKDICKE
Experiment: in vitro inhibition of LTD4 induced contraction of guinea pig tracheal spiral strips
Type: cell-based, guinea pig (adult male albino Hartley strain)
Conditions: guinea pig trachea, LTD4 agonist, 30 min pretreatment with test compound
Description: The leukotriene antagonist activity of the compounds of this invention is measured by the ability of the compounds to inhibit the leukotriene induced contraction of guinea pig tracheal tissues in vitro and to inhibit leukotriene induced bronchoconstriction in guinea pigs in vivo. The following methodologies were employed: In vitro: Guinea pig (adult male albino Hartley strain) tracheal spiral strips of approximate dimensions 2 to 3 mm cross-sectional width and 3.5 cm length were bathed in modified Krebs buffer in jacketed 10 ml tissue bath and continously aerated with 95% 02 /5% CO2. The tissues were connected via silk suture to force displacement transducers for recording isometric tension. The tissues were equilibrated for 1 hr., pretreated for 15 minutes with meclofenamic acid (1 μM) to remove intrinsic prostaglandin responses, and then pretreated for an additional 30 minutes with either the test compound or vehicle control. A cumulative concentration-response curve for LTD4 on triplicate tissues was generated by successive increases in the bath concentration of the LTD4. In order to minimize intertissue variability, the contractions elicited by LTD4 were standardized as a percentage of the maximum response obtained to a reference agonist, carbachol (10 μM). Calculations: The averages of the triplicate LTD4 concentration-response curves both in the presence and absence of the test compound were plotted on log graph paper. The concentration of LTD4 needed to elicit 30% of the contraction elicited by carbachol was measured and defined as the EC30. The -log KB value for the test compound was determined by the following equations: [formula] In vivo: Anesthetized, spontaneously breathing guinea pigs (Adult male albino Hartley strain) were monitored on a Buxco pulmonary mechanics computer. Changes in airway resistance (RL) were calculated by the computer on a breath-by-breath basis at isovolumic points from signals measuring airflow and transpulmonary pressure using differential pressure transducers. Animals received either test compound or vehicle control intravenously via the jugular vein. LTD4 was then injected into the jugular vein. The bronchoconstriction produced was reflected by % changes in airways resistance relative to the baseline values obtained prior to injection of the test compound or vehicle control. Each guinea pig received either vehicle control or test compound.

Row | Structure (SMILES) | Kb [nM]
1 | O=C(O)CCSC(SCCC(=O)O)c1ccccc1CCCCCCCCc1ccc(C(F)(F)F)cc1 [2 2 C8 H16(4-CF3 phenyl) H, 4,6-Dithia-5-[2-(8-(4-trifluoromethylphenyl)octyl)phenyl]nonanedioic acid] | 631
2 | CCCCCCCCCCCCc1ccccc1C(SCCC(=O)O)[S+]([O-])CCC(=O)O (stereo not drawn) [5-(2-dodecylphenyl)-4-sulfinyl-6-thianonanedioic acid] | 1580
3 | CCCCC/C=C\C/C=C\COc1cccc(C(SCCC(=O)O)SCCC(=O)O)c1 [2 2 H OCH2 CHCHCH2 CHCHC5 H11, 4,6-dithia-5-[3-(2(Z),5(Z)-undecadienyloxy)phenyl]nonanedioic acid] | 794
4 | CCCCCCCCCCCOc1ccc(Br)cc1C(SCCC(=O)O)SCCC(=O)O [2 2 OC11 H23 Br, 4,6-dithia-5-(5-bromo-2-undecyloxyphenyl)nonanedioic acid] | 1000
5 | CCCCCCCCCCCOc1ccc(OC)cc1C(SCCC(=O)O)SCCC(=O)O [2 2 OC11 H23 CH3 O, 4,6-dithia-5-(5-methoxy-2-undecyloxyphenyl)nonanedioic acid] | 1260
6 | CCCCCCCCCCC#Cc1ccccc1C(SCCC(=O)O)SCCC(=O)O [2 2 CCC10 H21 H, 4,6-Dithia-5-[2-(1-dodecyn-1-yl)phenyl]nonanedioic acid] | 794
7 | CCCCCCCCc1ccccc1C(SCCC(=O)O)SCCC(=O)O [2 2 C8 H17 H, 4,6-dithia-5-(2-octylphenyl)nonanedioic acid] | 6310
8 | CCCCCCCCCOc1cccc(C(SCCC(=O)O)SCCC(=O)O)c1 [2 2 H OC9 H19, 4,6-dithia-5-(3-nonyloxyphenyl)nonanedioic acid] | 1260
9 | CCCCCCCCCC/C=C/c1ccccc1C(SCCC(=O)O)SCCC(=O)O [2 2 CHCHC10 H21 trans H, 4,6-Dithia-5-[2-(1-trans-dodecenyl)phenyl]nonanedioic acid] | 1580
10 | CCCCCCCCCCCOc1ccc(O)cc1C(SCCC(=O)O)SCCC(=O)O [2 2 OC11 H23 OH, 4,6-dithia-5-(5-hydroxy-2-undecyloxyphenyl)nonanedioic acid] | 1000
11 | CCCCCCCCCCCOc1ccccc1C(C)(SCCC(=O)O)SCCC(=O)O [4,6-dithia-5-methyl-5-(2-undecyloxyphenyl)nonanedioic acid] | 5010
12 | CCCCCCCCCCCOc1ccc([N+](=O)[O-])cc1C(SCCC(=O)O)SCCC(=O)O [2 2 OC11 H23 NO2, 4,6-dithia-5-(5-nitro-2-undecyloxyphenyl)nonanedioic acid] | 794
13 | CCCCCCCCCCCCc1csc(C(SCCC(=O)O)SCCC(=O)O)c1 [Formula (V) 2 2 H C12 H25, 4,6-Dithia-5-(4-dodecyl-2-thienyl)nonanedioic acid] | 3160
14 | CCCCCCCCCOc1ccccc1C(SCCC(=O)O)SCCC(=O)O [2 2 OC9 H19 H, 4,6-dithia-5-(2-nonyloxyphenyl)nonanedioic acid] | 1580
15 | CCCc1c(OCCCCCOc2ccccc2C(SCCC(=O)O)SCCC(=O)O)ccc(C(C)=O)c1O [4,6-Dithia-5-[2-(5-(4-acetyl-3-hydroxy-2-propylphenoxy)-pentoxy)phenyl]nonanedioic acid] | 251
16 | CCCCC/C=C\C/C=C\COc1ccccc1C(SCCC(=O)O)SCCC(=O)O [2 2 OCH2CHCHCH2CHCHC5 H11 H, 4,6-dithia-5-[2-(2(Z),5(Z)-undecadienyloxy)phenyl]nonanedioic acid] | 1000
17 | O=C(O)CCSC(SCCC(=O)O)c1cc(C(F)(F)F)ccc1CCCCCCCCc1ccccc1 [2 2 C8 H16 phenyl CF3, 4,6-Dithia-5-[2-(8-phenyloctyl)-5-trifluoromethylphenyl]nonanedioic acid] | 251
18 | O=C(O)CCSC(SCCC(=O)O)c1ccccc1CCCCCC/C=C\c1ccccc1 [2 2 (CH2)6CHCHphenyl H, 4,6-Dithia-5-[2-(8-phenyl-7(Z)-octenyl)phenyl]nonanedioic acid] | 631
19 | CCCCCCCCCCCCc1ccccc1C(SCC(=O)O)SCC(=O)O [1 1 C12 H25 H, 3,5-dithia-4-(2-dodecylphenyl)heptanedioic acid] | 1260
20 | CCCCCCCCCCCOc1cccc(C(SCCC(=O)O)SCCC(=O)O)c1 [2 2 H OC11 H23, 4,6-dithia-5-(3-undecyloxyphenyl)nonanedioic acid] | 794
21 | CCCCCCCCCCCSc1ccccc1C(SCCC(=O)O)SCCC(=O)O [2 2 SC11 H23 H, 4,6-Dithia-5-(2-undecylthiophenyl)nonanedioic acid] | 1000
22 | CCCCc1ccc(CCCCc2ccccc2C(SCCC(=O)O)SCCC(=O)O)cc1 [2 2 [drawing 19] H, 4,6-Dithia-5-[2-(4-(4-butylphenyl)butyl)phenyl]nonanedioic acid] | 2510
23 | O=C(O)CCSC(SCCC(=O)O)c1ccccc1CCCCCCCSc1ccccc1 [2 2 C7 H4 S phenyl H, 4,6-Dithia-5-[2-(7-phenylthioheptyl)phenyl]nonanedioic acid] | 398
24 | C#CCCCCCCCCCCc1ccccc1C(SCCC(=O)O)SCCC(=O)O [2 2 C10 H20 CCH H, 4,6-Dithia-5-[2-(11-dodecynyl)phenyl]nonanedioic acid] | 398
25 | CCCCCCCCCCCCc1ccsc1C(SCCC(=O)O)SCCC(=O)O [Formula (V) 2 2 C12 H25 H, 4,6-dithia-5-(3-dodecyl-2-thienyl)nonanedioic acid] | 1260
26 | O=C(O)CCSC(SCCC(=O)O)c1cccc(CCCCCCCCc2ccccc2)c1 [2 2 H C8 H16 phenyl, 4,6-dithia-5-[3-(8-phenyloctyl)phenyl]nonanedioic acid] | 1000
27 | O=C(O)CCSC(SCCC(=O)O)c1ccccc1CCCCCCCCC1CCCCC1 [2 2 C8 H16 cyclohexyl H, 4,6-Dithia-5-[2-(8-cyclohexyloctyl)phenyl]nonanedioic acid] | 3160
